The results in this text go back to publication PMC6335953, “Triggering the expression of a silent gene cluster from genetically intractable bacteria results in scleric acid discovery” (Chemical Science, 2018).

Assay [1] relates to T1, Enterobacter cloacae NCTC 13405.
T1 construct: NCTC 13405
Kind of assay: microbe, parasite or virus in culture. Set-up: CLSI broth microdilution MIC in 96-well plates, cation-adjusted Mueller-Hinton broth. To be noted: NCTC13405. The method, then:
(§1) The susceptibility of bacterial strains was investigated in collaboration with the Warwick Antimicrobial Screening Facility in a 96-well plate experiment, according to the Clinical & Laboratory Standards Institute (CLSI) guidelines (M7-A9 2012). Scleric acid was diluted to a concentration of 7.5 mg mL^–1 in 25% DMSO in distilled water. […] This was then further doubling diluted throughout the MIC. Meropenem and cefoxitin were used as positive controls during MIC testing. The antimicrobial activity of scleric acid was assessed. Inhibitory activity against representatives of the ESKAPE panel of pathogens: Enterococcus faecium, Staphylococcus aureus, Klebsiella pneumoniae, Acinetobacter baumannii, Pseudomonas aeruginosa, and Enterobacter cloacae was first screened but all strains appeared to be resistant to scleric acid, giving no observable MIC (ESI Table S6 ^†).

Assay [2] concerns T2, Staphylococcus aureus USA300.
T2 construct: USA300 (ATCC BAA-1717)
In words: microbe, parasite or virus in culture. Set-up: CLSI broth microdilution MIC in 96-well plates, cation-adjusted Mueller-Hinton broth. On the procedure:
as §1

The test system of assay [3] is T3, Klebsiella pneumoniae ATCC 700603.
T3 construct: ATCC 700603
In words: microbe, parasite or virus in culture. Set-up: CLSI broth microdilution MIC in 96-well plates, cation-adjusted Mueller-Hinton broth. To be noted: ATCC700603. On the procedure: as §1

Assay [4] has as its system T4, Pseudomonas aeruginosa ATCC 27853.
T4 construct: ATCC 27853
In words: microbe, parasite or virus in culture. More on the design: CLSI broth microdilution MIC in 96-well plates, cation-adjusted Mueller-Hinton broth. To be noted: ATCC27853. The method, then:
as §1

The test system of assay [5] is T5, Acinetobacter baumanii ATCC 19606.
T5 construct: ATCC 19606
Kind of assay: microbe, parasite or virus in culture. More on the design: CLSI broth microdilution MIC in 96-well plates, cation-adjusted Mueller-Hinton broth. The settings on record: Acinetobacter baumannii, ATCC19606. On the procedure: as §1

Assay [6] has as its system T6, Enterococcus faecium ATCC 12202.
T6 construct: ATCC 12202
In words: microbe, parasite or virus in culture. More on the design: CLSI broth microdilution MIC in 96-well plates, cation-adjusted Mueller-Hinton broth. To be noted: ATCC12202. On the procedure: as §1

Assay [7] deals with T7, nicotinamide N-methyltransferase (NNMT) (Homo sapiens, UniProt P40261).
T7 sequence (P40261 1-264): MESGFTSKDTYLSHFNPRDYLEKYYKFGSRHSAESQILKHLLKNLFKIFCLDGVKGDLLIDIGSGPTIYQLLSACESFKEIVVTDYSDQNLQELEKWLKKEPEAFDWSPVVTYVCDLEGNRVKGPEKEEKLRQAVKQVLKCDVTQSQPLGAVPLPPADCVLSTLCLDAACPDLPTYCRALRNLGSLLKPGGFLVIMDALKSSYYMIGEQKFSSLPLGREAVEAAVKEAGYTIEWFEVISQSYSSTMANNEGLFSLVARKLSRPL
Kind of assay: NNMT concentration-response assay (MNAN and SAH product readouts), Eli Lilly OIDD; enzyme source not stated in main text. The format is biochemical.

Usually IC50 stands for the midpoint of a concentration-inhibition curve. Lower therefore signals inhibition by little substance.

With `O=C(OCC(=O)N1CCC[C@H]1C(=O)O)c1ccccc1` [compound 2, (2-(benzoyloxy)acetyl)-L-proline], the MIC in assay [1], in assay [2], in assay [3], in assay [4], in assay [5] and in assay [6] was > 1020 µg/mL throughout. For the same molecule, the 50% inhibitory concentration (IC50) in assay [7] is 178 µM.
